Measurements reported in ChEMBL document CHEMBL5725665, “Pyrazolopyridines and pyrazolopyrimidines” (2018).

How the values were obtained:
[1] = target: Non-receptor tyrosine-protein kinase TYK2 (Homo sapiens, UniProt P29597); experiment: (§1) JAK Caliper Enzyme Assay at 1 mM ATP: Test article was solubilized in dimethyl sulfoxide (DMSO) to a stock concentration of 30 mM. An 11-point half log dilution series was created in DMSO with a top concentration of 600 μM. […] The compound plates were diluted 1 to 60 resulting in a top final assay compound concentration of 10 μM and a 2% DMSO concentration.Test article and assay controls were added to a 384-well plate. Reaction mixtures contained 20 mM HEPES, pH 7.4, 10 mM magnesium chloride, 0.01% bovine serum albumin (BSA), 0.0005% Tween 20, 1 mM ATP and 1 μM peptide substrate. The JAK1 and TYK2 assays contained 1 μM of the IRStide peptide (5FAM-[…]) and the JAK2 and JAK3 assays contained 1 μM of the JAKtide peptide (FITC-[…]). […] Enzyme concentrations and incubation times were optimized for each new enzyme preps and were modified slightly over time to ensure 20%-30% phosphorylation. The assays were stopped with a final concentration of 10 mM EDTA, 0.1% Coating Reagent and 100 mM HEPES, pH=7.4. The assay plates were placed on a Caliper Life Science Lab Chip 3000 (LC3000) instrument, and each well was sampled using appropriate separation conditions to measure the unphosphorylated and phosphorylated peptide.
[2] = target: Tyrosine-protein kinase JAK1 (Homo sapiens, UniProt P23458); experiment: as §1
[3] = target: T1, Tyrosine-protein kinase JAK3 (Homo sapiens, UniProt P52333); experiment: as §1
T1 sequence (P52333 whole entry): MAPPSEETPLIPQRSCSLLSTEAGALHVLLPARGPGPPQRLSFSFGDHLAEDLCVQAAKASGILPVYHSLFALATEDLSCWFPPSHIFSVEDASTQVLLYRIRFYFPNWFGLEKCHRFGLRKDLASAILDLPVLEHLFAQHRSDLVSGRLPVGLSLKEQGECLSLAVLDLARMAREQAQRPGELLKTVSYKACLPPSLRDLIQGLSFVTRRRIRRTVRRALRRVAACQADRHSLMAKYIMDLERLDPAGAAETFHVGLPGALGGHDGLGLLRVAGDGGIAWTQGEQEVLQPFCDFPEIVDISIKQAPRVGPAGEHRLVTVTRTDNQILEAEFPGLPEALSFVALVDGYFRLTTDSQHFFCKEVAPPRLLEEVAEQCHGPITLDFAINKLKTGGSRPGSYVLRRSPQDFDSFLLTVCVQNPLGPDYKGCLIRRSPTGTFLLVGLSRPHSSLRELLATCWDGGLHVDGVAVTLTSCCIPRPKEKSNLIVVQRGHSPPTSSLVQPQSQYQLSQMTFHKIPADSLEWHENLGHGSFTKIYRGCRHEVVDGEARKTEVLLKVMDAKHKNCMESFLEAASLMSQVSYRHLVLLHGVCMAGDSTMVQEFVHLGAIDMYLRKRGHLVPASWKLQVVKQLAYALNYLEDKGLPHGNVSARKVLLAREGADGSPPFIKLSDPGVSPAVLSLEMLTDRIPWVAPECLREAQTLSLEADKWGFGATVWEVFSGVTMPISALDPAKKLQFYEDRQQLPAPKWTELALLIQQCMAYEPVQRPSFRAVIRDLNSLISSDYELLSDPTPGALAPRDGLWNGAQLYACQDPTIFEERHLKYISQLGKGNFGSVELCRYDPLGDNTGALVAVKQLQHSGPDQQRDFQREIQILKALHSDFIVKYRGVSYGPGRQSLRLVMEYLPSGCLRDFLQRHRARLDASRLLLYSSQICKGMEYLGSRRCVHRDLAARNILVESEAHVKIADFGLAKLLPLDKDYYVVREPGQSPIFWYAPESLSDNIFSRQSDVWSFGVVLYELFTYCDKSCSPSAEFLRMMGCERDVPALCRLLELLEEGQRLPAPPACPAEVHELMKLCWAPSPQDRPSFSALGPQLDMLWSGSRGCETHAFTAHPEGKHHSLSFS

[4] = target: Tyrosine-protein kinase JAK2 (Homo sapiens, UniProt O60674); experiment: JAK Caliper Enzyme Assay at 1 mM ATP: Test article was solubilized in dimethyl sulfoxide (DMSO) to a stock concentration of 30 mM. An 11-point half log dilution series was created in DMSO with a top concentration of 600 μM. […] The compound plates were diluted 1 to 60 resulting in a top final assay compound concentration of 10 μM and a 2% DMSO concentration.Test article and assay controls were added to a 384-well plate. Reaction mixtures contained 20 mM HEPES, pH 7.4, 10 mM magnesium chloride, 0.01% bovine serum albumin (BSA), 0.0005% Tween 20, 1 mM ATP and 1 μM peptide substrate. […] Enzyme concentrations and incubation times were optimized for each new enzyme preps and were modified slightly over time to ensure 20%-30% phosphorylation. The assays were stopped with a final concentration of 10 mM EDTA, 0.1% Coating Reagent and 100 mM HEPES, pH=7.4. The assay plates were placed on a Caliper Life Science Lab Chip 3000 (LC3000) instrument, and each well was sampled using appropriate separation conditions to measure the unphosphorylated and phosphorylated peptide.
Sequence of Tyrosine-protein kinase JAK2 (O60674 whole entry): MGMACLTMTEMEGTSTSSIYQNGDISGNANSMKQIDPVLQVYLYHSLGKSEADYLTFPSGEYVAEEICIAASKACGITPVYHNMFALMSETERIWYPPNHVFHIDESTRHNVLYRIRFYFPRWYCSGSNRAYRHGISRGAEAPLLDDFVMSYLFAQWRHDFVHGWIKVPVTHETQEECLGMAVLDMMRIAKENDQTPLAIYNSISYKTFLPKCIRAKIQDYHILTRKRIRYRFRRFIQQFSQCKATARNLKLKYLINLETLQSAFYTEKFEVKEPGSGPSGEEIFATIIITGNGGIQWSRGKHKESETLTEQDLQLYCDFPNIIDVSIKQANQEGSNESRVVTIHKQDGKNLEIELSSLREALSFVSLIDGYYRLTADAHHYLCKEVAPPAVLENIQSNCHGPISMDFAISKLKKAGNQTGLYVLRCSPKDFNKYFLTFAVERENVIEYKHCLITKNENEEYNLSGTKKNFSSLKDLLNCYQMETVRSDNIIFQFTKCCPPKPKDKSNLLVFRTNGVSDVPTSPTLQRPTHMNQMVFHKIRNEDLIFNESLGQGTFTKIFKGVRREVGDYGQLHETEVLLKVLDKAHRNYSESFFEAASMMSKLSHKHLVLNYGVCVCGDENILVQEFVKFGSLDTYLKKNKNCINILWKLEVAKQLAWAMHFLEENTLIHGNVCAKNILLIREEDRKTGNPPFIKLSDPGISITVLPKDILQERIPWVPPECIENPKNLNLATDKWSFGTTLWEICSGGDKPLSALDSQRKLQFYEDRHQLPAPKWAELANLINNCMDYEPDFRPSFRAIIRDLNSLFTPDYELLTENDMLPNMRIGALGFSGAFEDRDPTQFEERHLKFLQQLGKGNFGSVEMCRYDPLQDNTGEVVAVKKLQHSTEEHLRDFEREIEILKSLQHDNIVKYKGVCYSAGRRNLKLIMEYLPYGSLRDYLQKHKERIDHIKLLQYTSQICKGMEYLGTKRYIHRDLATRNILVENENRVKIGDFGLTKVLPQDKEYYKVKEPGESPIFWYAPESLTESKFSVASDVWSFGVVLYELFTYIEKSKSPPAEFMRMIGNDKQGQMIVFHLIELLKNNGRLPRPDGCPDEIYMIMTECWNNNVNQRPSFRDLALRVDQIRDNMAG

Sequence of Non-receptor tyrosine-protein kinase TYK2 (P29597 whole entry): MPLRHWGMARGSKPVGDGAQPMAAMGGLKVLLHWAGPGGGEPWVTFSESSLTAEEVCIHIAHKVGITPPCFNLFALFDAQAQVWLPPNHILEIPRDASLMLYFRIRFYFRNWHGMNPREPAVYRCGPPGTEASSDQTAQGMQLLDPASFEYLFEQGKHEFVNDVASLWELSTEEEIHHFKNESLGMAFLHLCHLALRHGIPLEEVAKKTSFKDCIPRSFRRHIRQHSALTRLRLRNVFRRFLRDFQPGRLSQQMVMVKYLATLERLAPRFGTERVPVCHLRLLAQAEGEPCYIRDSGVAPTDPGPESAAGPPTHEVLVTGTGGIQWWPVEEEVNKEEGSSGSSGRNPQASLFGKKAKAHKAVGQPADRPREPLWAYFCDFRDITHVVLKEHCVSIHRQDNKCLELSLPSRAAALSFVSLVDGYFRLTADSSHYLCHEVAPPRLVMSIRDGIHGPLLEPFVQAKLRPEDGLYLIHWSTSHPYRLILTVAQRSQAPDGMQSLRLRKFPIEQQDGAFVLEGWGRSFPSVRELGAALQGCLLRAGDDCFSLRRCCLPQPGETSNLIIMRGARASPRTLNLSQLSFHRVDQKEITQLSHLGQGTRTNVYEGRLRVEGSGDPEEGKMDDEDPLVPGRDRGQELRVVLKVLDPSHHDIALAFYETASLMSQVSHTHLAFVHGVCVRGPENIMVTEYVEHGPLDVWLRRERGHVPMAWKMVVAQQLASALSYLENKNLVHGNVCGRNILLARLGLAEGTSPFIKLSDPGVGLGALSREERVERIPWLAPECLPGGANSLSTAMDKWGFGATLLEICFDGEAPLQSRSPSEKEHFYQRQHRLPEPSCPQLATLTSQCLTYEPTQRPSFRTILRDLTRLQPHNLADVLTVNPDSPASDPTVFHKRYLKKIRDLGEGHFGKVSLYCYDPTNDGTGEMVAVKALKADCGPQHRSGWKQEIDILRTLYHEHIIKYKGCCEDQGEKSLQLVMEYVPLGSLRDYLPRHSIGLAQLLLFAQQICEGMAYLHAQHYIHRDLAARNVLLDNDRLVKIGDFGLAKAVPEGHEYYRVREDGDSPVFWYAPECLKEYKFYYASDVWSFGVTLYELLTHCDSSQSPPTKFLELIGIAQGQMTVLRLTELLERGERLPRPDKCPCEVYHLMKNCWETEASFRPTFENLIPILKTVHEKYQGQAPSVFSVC
Sequence of Tyrosine-protein kinase JAK1 (P23458 whole entry): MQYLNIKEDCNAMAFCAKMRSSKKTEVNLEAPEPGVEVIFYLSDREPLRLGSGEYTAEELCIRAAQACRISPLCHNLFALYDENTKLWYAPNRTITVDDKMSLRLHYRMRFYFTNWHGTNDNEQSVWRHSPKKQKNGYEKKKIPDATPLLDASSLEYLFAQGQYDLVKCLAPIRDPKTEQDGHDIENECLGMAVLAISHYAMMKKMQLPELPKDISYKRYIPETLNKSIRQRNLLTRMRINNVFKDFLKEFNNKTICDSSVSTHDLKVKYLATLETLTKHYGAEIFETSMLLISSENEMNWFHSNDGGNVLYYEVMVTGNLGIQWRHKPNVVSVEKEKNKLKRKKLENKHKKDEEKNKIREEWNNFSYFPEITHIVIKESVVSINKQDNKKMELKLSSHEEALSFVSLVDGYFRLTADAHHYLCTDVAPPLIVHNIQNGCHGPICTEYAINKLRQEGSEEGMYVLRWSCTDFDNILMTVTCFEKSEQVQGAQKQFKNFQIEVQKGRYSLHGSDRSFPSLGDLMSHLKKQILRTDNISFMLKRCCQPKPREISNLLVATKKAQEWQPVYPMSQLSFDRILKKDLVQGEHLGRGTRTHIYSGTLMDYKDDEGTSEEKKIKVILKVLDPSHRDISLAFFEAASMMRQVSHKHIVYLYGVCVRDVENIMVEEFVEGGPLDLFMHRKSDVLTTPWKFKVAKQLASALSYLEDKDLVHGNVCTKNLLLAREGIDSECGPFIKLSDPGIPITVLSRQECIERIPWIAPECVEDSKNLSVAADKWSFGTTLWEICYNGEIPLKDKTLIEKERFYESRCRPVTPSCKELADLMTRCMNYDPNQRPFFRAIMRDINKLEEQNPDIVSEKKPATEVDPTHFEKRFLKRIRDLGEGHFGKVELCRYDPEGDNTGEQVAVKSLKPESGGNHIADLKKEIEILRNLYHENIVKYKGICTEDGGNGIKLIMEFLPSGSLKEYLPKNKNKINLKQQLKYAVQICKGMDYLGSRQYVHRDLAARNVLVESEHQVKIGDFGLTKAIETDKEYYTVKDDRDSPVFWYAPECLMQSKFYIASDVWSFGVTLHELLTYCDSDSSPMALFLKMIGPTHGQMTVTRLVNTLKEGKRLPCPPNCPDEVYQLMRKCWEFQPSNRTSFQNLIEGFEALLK

| SMILES | IC50 [1] | IC50 [2] | IC50 [3] | IC50 [4] |
| --- | --- | --- | --- | --- |
| CS(=O)(=O)N(CCO)c1ccccc1CNc1nc(-c2cc(F)c(O)cc2CC(F)(F)F)cc2[nH]nc(C(N)=O)c12 | 48.8 nM | 2.9 nM | 53.5 nM | 14.7 nM |
| CN(c1ccccc1CNc1nc(-c2cc(F)c(O)cc2CC(F)(F)F)nc2[nH]nc(-c3nnc(C4CCN(C(=O)CN5CCCC5)CC4)[nH]3)c12)S(C)(=O)=O | 2260 nM | 16.8 nM | 158 nM | 54.3 nM |
| Cc1nnc(-c2n[nH]c3cc(-c4cc(F)c(O)cc4CC(F)(F)F)nc(NCc4ccccc4N(C)S(C)(=O)=O)c23)[nH]1 | 150 nM | 27.5 nM | 429 nM | 129 nM |
| CN(c1ccc(O)cc1CNc1nc(-c2cc(F)c(O)cc2CC(F)(F)F)nc2[nH]nc(-c3nc4c([nH]3)CCNC4)c12)S(C)(=O)=O | 68.6 nM | 5.6 nM | 111 nM | 35.3 nM |
| CCc1cc(O)ccc1-c1cc2[nH]ncc2c(N2CC(Oc3ccccc3)C2)n1 | 5170 nM | 12.1 nM | 67.5 nM | 82.9 nM |
| CCc1cc(O)ccc1-c1cc2[nH]ncc2c(NCCc2ccc(-c3ccccc3)cc2)n1 | 4230 nM | 87.6 nM | 157 nM | 183 nM |
| CN(c1ccc(O)cc1CNc1nc(-c2cc(F)c(O)cc2CC(F)(F)F)nc2[nH]nc(C(N)=O)c12)S(C)(=O)=O | 373 nM | 3.2 nM | 38 nM | 12.7 nM |
